# Key:
# rat [1] = conditions: Combined chronic toxicity/carcinogenicity; fischer; Dermal; Topical; dose end: 2 year; group: systemic; systemic / pathology microscopic / pituitary gland / adenoma
# mouse [2] = conditions: Carcinogenicity, b6c3f1, Dermal, Topical, dose end: 2 year, group: systemic
# rat [3] = conditions: Subchronic oral toxicity in rodents, fischer, Dermal, Topical, dose end: 13 week, group: systemic
# mouse [4] = conditions: Prenatal developmental toxicity study, cd1, Injection, Intravenous, dose end: 12 GD
# rat [5] = conditions: Prenatal developmental toxicity study, sprague dawley, Injection, Intramuscular, dose end: 13 GD, group: developmental
# rat [6] = conditions: Combined chronic toxicity/carcinogenicity, sprague dawley, Oral, Feed, dose end: 24 month, group: systemic
# dog [7] = conditions: Subchronic oral toxicity in nonrodent, beagle, Feed, dose end: 90 day, group: systemic
# rat [8] = conditions: Prenatal developmental toxicity study, sprague dawley, Oral, Gavage/Intubation, dose end: 17 GD
# mouse [9] = conditions: Carcinogenicity; cd1; Oral; Feed; dose end: 78 week; group: systemic; systemic / pathology microscopic / kidney / nephropathy
# dog [10] = conditions: Chronic toxicity, beagle, Oral, Capsule, dose end: 52 week, group: systemic
# rat [11] = conditions: Subchronic oral toxicity in rodents, sprague dawley, Feed, dose end: 90 day, group: systemic
# rat [12] = conditions: Multigenerational reproductive toxicity study, sprague dawley, Oral, Feed, dose end: 2 generation
# [13] = systemic / in life observation / body weight / body weight + systemic / in life observation / mortality / mortality
# [14] = systemic / pathology microscopic / lung / congestion + systemic / pathology microscopic / pancreas / vacuolization + systemic / in life …
# [15] = group: developmental, developmental / developmental malformation / general / [other] + systemic / in life observation / body weight / fetal weight
# [16] = group: developmental, systemic / in life observation / body weight / fetal weight
# [17] = group: maternal, reproductive / reproductive performance / resorptions / resorptions + systemic / in life observation / body weight / body weight gain + …
# [18] = developmental / developmental malformation / mouth / jaw / cleft palate
# [19] = developmental / developmental malformation / mouth / jaw / cleft palate + systemic / in life observation / body weight / fetal weight
# [20] = systemic / clinical chemistry / gamma glutamyl transferase (ggt) / gamma glutamyl transferase (ggt)
# [21] = systemic / clinical chemistry / lipids / phospholipids
# [22] = group: developmental, developmental / developmental malformation / bone / [other]
# [23] = group: developmental, developmental / developmental malformation / bone / [other] + developmental / developmental malformation / other / other + developmental / …
# [24] = group: maternal, systemic / in life observation / body weight / body weight + systemic / in life observation / body weight / body weight gain + systemic / in…
# [25] = systemic / in life observation / body weight / body weight gain + systemic / organ weight / liver / relative to body weight + systemic / …
# [26] = systemic / clinical chemistry / aspartate aminotransferase (ast/sgot) / aspartate aminotransferase (ast/sgot) + systemic / clinical …
# [27] = systemic / clinical chemistry / cholesterol / cholesterol + systemic / clinical chemistry / lipids / phospholipids + systemic / hematology…
# [28] = group: offspring, systemic / in life observation / body weight / offspring (pup) weight
# [29] = group: parental, systemic / in life observation / body weight / body weight + systemic / in life observation / body weight / body weight gain + systemic / in…
structure (smiles),measurement,setting,value
OCCCl [2-Chloroethanol],LEL,rat [1],100 mg/kg/day
same,LOAEL,rat [1],> 100 mg/kg/day
same,NEL,rat [1],50 mg/kg/day
same,NOAEL,rat [1],≥ 100 mg/kg/day
same,LEL,mouse [2]; [13],180 mg/kg/day
same,NEL,mouse [2]; [13],< 180 mg/kg/day
same,LOAEL,mouse [2]; systemic / pathology microscopic / skin / inflammation + systemic / pathology microscopic / skin / ulcer,411 mg/kg/day
same,NOAEL,mouse [2]; systemic / pathology microscopic / skin / inflammation + systemic / pathology microscopic / skin / ulcer + systemic / in life observation / …,180 mg/kg/day
same,LOAEL,rat [3]; systemic / pathology microscopic / lung / congestion + systemic / pathology microscopic / pancreas / vacuolization,500 mg/kg/day
same,NEL,rat [3]; [14],125 mg/kg/day
same,NOAEL,rat [3]; [14],250 mg/kg/day
same,LEL,rat [3]; systemic / pathology microscopic / pancreas / vacuolization + systemic / in life observation / mortality / mortality,250 mg/kg/day
same,LOAEL,mouse [4]; [15],> 120 mg/kg/day
same,NOAEL,mouse [4]; [15],≥ 120 mg/kg/day
same,LEL,mouse [4]; [16],60 mg/kg/day
same,NEL,mouse [4]; [16],< 60 mg/kg/day
same,LEL,mouse [4]; [17],120 mg/kg/day
same,LOAEL,mouse [4]; [17],> 120 mg/kg/day
same,NEL,mouse [4]; [17],60 mg/kg/day
same,NOAEL,mouse [4]; [17],≥ 120 mg/kg/day
C[C@]12C=CC(=O)C=C1CC[C@H]1[C@@H]3C[C@@H](O)[C@](O)(C(=O)CO)[C@@]3(C)C[C@H](O)[C@@]12F [Triamcinolone],LEL,rat [5]; [18],10 mg/kg/day
same,NEL,rat [5]; [18],< 10 mg/kg/day
same,LOAEL,rat [5]; [19],> 40 mg/kg/day
same,NOAEL,rat [5]; [19],≥ 40 mg/kg/day
CC(COc1ccc(Oc2ccccc2)cc1)Oc1ccccn1 (stereo not given) [Pyriproxyfen],LEL,rat [6]; [20],7.04 mg/kg/day
same,NEL,rat [6]; [20],< 7.04 mg/kg/day
same,NOAEL,rat [6]; systemic / clinical chemistry / gamma glutamyl transferase (ggt) / gamma glutamyl transferase (ggt) + systemic / in life observation / body …,35.1 mg/kg/day
same,LOAEL,rat [6]; systemic / in life observation / body weight / body weight,183 mg/kg/day
same,LEL,dog [7]; [21],100 mg/kg/day
same,NEL,dog [7]; [21],< 100 mg/kg/day
same,NOAEL,dog [7]; systemic / pathology microscopic / liver / hypertrophy + systemic / clinical chemistry / alpha-1 globulin / alpha-1 globulin + systemic / …,100 mg/kg/day
same,LOAEL,dog [7]; systemic / pathology microscopic / liver / hypertrophy + systemic / organ weight / liver / absolute + systemic / organ weight / liver / …,300 mg/kg/day
same,LEL,rat [8]; [22],300 mg/kg/day
same,LOAEL,rat [8]; [22],300 mg/kg/day
same,NEL,rat [8]; [23],100 mg/kg/day
same,NOAEL,rat [8]; [23],100 mg/kg/day
same,LEL,rat [8]; [24],300 mg/kg/day
same,LOAEL,rat [8]; [24],300 mg/kg/day
same,NEL,rat [8]; [24],100 mg/kg/day
same,NOAEL,rat [8]; [24],100 mg/kg/day
same,LEL,mouse [9],420 mg/kg/day
same,LOAEL,mouse [9],420 mg/kg/day
same,NEL,mouse [9],84 mg/kg/day
same,NOAEL,mouse [9],84 mg/kg/day
same,LEL,dog [10]; systemic / in life observation / body weight / body weight gain + systemic / clinical chemistry / cholesterol / cholesterol + systemic / …,100 mg/kg/day
same,LOAEL,dog [10]; systemic / in life observation / body weight / body weight gain + systemic / organ weight / liver / relative to body weight,300 mg/kg/day
same,NEL,dog [10]; [25],30 mg/kg/day
same,NOAEL,dog [10]; [25],100 mg/kg/day
same,LEL,rat [11]; [26],23.5 mg/kg/day
same,NEL,rat [11]; [26],< 23.5 mg/kg/day
same,LOAEL,rat [11]; [27],118 mg/kg/day
same,NOAEL,rat [11]; [27],23.5 mg/kg/day
same,LEL,rat [12]; [28],453 mg/kg/day
same,LOAEL,rat [12]; [28],453 mg/kg/day
same,NEL,rat [12]; [28],87 mg/kg/day
same,NOAEL,rat [12]; [28],87 mg/kg/day
same,LOAEL,rat [12]; [29],453 mg/kg/day
same,NEL,rat [12]; [29],18 mg/kg/day
same,NOAEL,rat [12]; [29],87 mg/kg/day
same,LEL,"rat [12]; group: parental, systemic / organ weight / liver / relative to body weight + systemic / pathology microscopic / kidney / inflammation + systemic / organ …",87 mg/kg/day

# From EPA's ToxRefDB 2
